Assay results: patent US20060194262A1, “P27 ubiquitination assay and methods of use” (priority 2004, published 2006)
Where two headings read alike, the source gives them in different places. Values belong to the molecule of their own block, whether it stands above or below them.

Key:
[1] = system: p27 ubiquitination (E1, E2, E3 SCF^Skp2, Cks1); conditions: reaction includes 5 mM MgCl2
Excerpt: A homogenous, time-resolved fluorescence resonance energy transfer (HTR-FRET) assay was developed for high throughput screening of compounds that block p27 ubiquitination in vitro. In this assay, p27 is modified with a mixture of ubiquitin (Ub) and biotinylated ubiquitin (Bio-Ub) in the presence of E1, E2, E3 and Cks1 (FIG. 11). A rabbit anti-phospho-p27 antibody and Lance Eu labeled Protein G (Eu-PRG) were used as a donor and Cy5-labeled streptavidin (Cy5-SA or Dylite-SA) is used as an acceptor. Ubiquitinated p27 is detected by FRET signal generated between Eu and Cy5.
In this format, Bio-Ub is used as a tracer to label ubiquitinated p27. Lance Eu-labeled Protein G (Eu-PRG) coupled to anti-phospho-p27 is used as the FRET donor, and SA-Cy5 is used as the FRET acceptor. The FRET signal is measured as the ratio of fluorescence emission of Cy5 at 665 nm over that of Eu at 620 nm after excitation of Eu at 340 nm.
Next, stopping conditions for the p27 ubiquitination were determined.
Assay Procedures: • 1) Prepare Starting solutions and incubate at room temperature for 20˜30 min Start+Cks1: 12 μM Ub, 3 μM Bio-Ub, and 1.875 ng/μl (187.5 nM) Cks1 in assay dilution buffer. Start−Cks1: 12 μM Ub and 3 μM Bio-Ub in assay dilution buffer. • 2) Prepare Assay mix A as indicated in Table 3 • 3) Set up reaction: In an assay plate, add 5 μl/well of Assay mix A, compound in 6% DMSO and 0.03% Brij35 (30 μg/ml; final concentration at 10 μg/ml), and Starting solutions. The total assay volume is 15 μl. Incubate at room temperature (˜23° C.-25° C.) for 1 hour. • 4) Stop the reaction with the addition of 15 μl/well of Stopping solution (40 mM EDTA, 0.1% Tween 20, 250 nM Cy5, 2 nM Eu-PRG, and 8 nM anti-phospho-p27 in PBS)

[2] = system: T1, p27 ubiquitination (E1, E2, E3 SCF^Skp2, Cks1); assay: p27 ubiquitination assay, plate capture format (DMSO tolerance); format: biochemical, Human
T1 construct: His; Strep tag (cleaved yes); GST; made in house; host or cells: Sf9 (His-E1; p27/Cdk2/cyclin E); E. coli (His-UbcH3, Cks1); baculovirus-infected insect cells (SCF-Skp2)
Excerpt: This assay measures the ubiquitination of cell cycle inhibitor p27 in a high-throughput-capable in vitro reconstituted system that mimics the ubiquitination of p27 in vivo. Ubiquitinated p27 is captured using an anti-p27 antibody-coated plate and detected by Europium (Eu)-labeled streptavidin that binds biotinylated ubiquitin. The assay as described below incorporates the addition of a test compound to the ubiquitination reaction.
Assay mix A (see below) contained: 3× concentration ubiquitin buffer (120 mM Tris·HCl pH 7.5, 15 mM MgCl2), 3 mM dithiothreitol, 15 ng/μL E1, 450 ng/μLE2, 15 ng/μL E3, and 12 ng/μL pre-phosphorylated p27.
Starting solution (see below) contained 0.75 mg/mL biotinylated ubiquitin and 0.75 ng/μL Cks1 in assay dilution buffer (30 mM Tris·HCl pH7.5, 1 mM DTT, 19.5% glycerol). Starting solution for negative control contains 0.75 mg/mL biotinylated ubiquitin in assay dilution buffer (30 mM Tris·HCl pH7.5, 1 mM DTT, 19.5% glycerol).
The capture plates were coated as follows. […]
The ubiquitination reaction was run as follows: 5 μL of a test compound in 6% dimethylsulfoxide (DMSO) was added to each well of a V-bottom plate. […] 25 μL enhancement solution was added per well, and the plates were read to determine the amount of time-resolved fluorescence emission at 615 nm for Europium chelate. […]

E1 = molecular target: T2, E1 (Homo sapiens, UniProt P22314); assay: apparent Km of ubiquitin for E1; format: biochemical; conditions: read-out: apparent Km of Ub for E1
T2 sequence (P22314 1-1058): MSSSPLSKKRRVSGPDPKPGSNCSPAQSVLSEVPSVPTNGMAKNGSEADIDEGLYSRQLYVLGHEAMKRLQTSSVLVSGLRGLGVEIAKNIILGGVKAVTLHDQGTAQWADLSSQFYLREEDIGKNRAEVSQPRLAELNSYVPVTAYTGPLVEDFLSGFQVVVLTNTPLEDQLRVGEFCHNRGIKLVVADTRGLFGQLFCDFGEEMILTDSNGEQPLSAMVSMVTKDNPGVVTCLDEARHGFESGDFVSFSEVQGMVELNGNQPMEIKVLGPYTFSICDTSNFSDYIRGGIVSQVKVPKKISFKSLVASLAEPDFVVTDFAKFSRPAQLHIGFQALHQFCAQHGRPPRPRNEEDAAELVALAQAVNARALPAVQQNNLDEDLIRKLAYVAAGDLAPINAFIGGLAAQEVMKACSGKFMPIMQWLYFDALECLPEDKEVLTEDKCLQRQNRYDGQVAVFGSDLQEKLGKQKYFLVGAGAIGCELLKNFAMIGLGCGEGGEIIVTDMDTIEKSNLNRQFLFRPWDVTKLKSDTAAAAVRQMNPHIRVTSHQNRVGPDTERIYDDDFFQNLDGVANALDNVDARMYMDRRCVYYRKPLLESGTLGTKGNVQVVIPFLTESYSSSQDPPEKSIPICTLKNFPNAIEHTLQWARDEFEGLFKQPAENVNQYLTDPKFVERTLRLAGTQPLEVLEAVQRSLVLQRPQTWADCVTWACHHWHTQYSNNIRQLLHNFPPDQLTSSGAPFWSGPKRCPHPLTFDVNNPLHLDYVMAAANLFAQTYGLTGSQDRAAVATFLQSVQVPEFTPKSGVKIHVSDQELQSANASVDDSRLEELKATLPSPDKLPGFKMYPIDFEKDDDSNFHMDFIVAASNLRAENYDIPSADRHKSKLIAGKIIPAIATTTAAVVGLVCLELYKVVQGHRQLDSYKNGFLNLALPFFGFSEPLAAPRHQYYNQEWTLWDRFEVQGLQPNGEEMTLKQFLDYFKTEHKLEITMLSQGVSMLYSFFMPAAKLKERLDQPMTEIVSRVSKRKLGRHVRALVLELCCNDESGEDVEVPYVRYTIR
Procedure: In an HTR-FRET assay, the background FRET increases as the concentrations of Eu and Cy5 increase. In general, to achieve a low background signal, Eu concentrations should be in the low nM range while Cy5 concentrations can be up to 100-200 nM. To determine the optimal concentration of Bio-Ub used in the p27 Ub assay, 80 nM of p27 was ubiquitinated with 0-4 μM of Bio-Ub and diluted 1:4 with a detection mixture containing a final concentration of 5 nM Eu-PRG, 10 nM anti-p27, and 25-125 nM SA-Cy5. 1 uM of Bio-Ub with 125 nM of Cy5-SA gave the best signal-to-background (S/B) ratio (FIG. 12). […] Since the apparent Km of Ub for E1 is about 2 μM, 4 μM of unlabeled ubiquitin was used in the reaction (2×apparent Km). Ubiquitination of p27 in the presence of 4 μM Ub and 1 μM Bio-Ub was very similar to that of p27 in the presence of saturating concentrations of Bio-Ub (28 μM) (FIG. 13).

effect on p27 ubiquitination ([1]; 5 mM EDTA alone): no effect
p27 ubiquitination ([1]; 10 mM EDTA): only partially inhibited
Ubiquitination of p27 ([1]; 20 mM EDTA, data not shown): completely inhibited
Molecule: O=C(O)CN(CCN(CC(=O)O)CC(=O)O)CC(=O)O [EDTA]

Molecule: C[S+](C)[O-] [DMSO, dimethylsulfoxide]
p27 ubiquitination activity remained ([2]; 2% DMSO, titration between 0 and 10% DMSO): approximately 60%
p27 ubiquitination ([2]; above 15% (v/v) of DMSO, initial titration): nearly completely lost

Molecule: ubiquitin
Km (E1): ~2 µM
